# Activity calls are given as the source filed them. No cut-off for these calls is given here.
# Key:
# MCF7 [1] = assay: Inhibition of cell invasion of human MCF7 cells at 2.5 to 25 uM in presence of 2.5 to 25 uM Rhosin/G04 by Matrigel-coated transwell based assay; assay type: functional
# MCF7 [2] = assay: Inhibition of RhoGEF in human MCF7 cells derived mammospheres assessed as inhibition of 10% calf serum-induced RhoA-GTP formation by measuring relative RhoA-GTP level at 5 uM in presence of 5 uM Rhosin/G04 incubated for 24 hrs by densitometry (reference value: 1); assay type: cell-based
# [3] = molecular target: Triple functional domain protein (Homo sapiens, UniProt O75962); assay: Binding affinity to GST-tagged human TrioN RhoGEF (1284 to 1711 residues) by microscale thermophoresis analysis
# Homo sapiens [4] = species: Homo sapiens; assay: Inhibition of GST-tagged human TrioN (1284 to 1711 residues) RhoGEF-catalyzed guanine nucleotide-exchange reaction of human full length Rac1 (1 to 192 residues) by measuring inhibition of the GDP dissociation from Rac1 at 0.76 to 250000 nM by Alexa 647 fluorescence dye based GDP/GTP exchange assay
# Mus musculus [5] = species: Mus musculus; assay: Inhibition of RhoGEF in mouse NIH/3T3 cells assessed as reduction in 10% calf serum-induced rhoA-mediated actin stress fiber formation at 10 uM by rhodamine-phalloidin staining based assay; assay type: cell-based
# MCF7 [6] = assay: Inhibition of cell invasion of human MCF7 cells at 10 to 50 uM by Matrigel-coated transwell based assay; assay type: functional
# [7] = molecular target: RhoGEF 1/Transforming protein RhoA (Homo sapiens) (UniProt P61586+Q92888); assay: Binding affinity to human LARG (765 to 1138 residues) DH-PH module expressed in mouse NIH/3T3 cells assessed as reduction in LARG binding to human full length RhoA (1 to 193 residues) by measuring relative LARG binding level at 5 uM in presence of 5 uM Rhosin/G04 pull-down assay (reference value: 1 No unit); assay type: cell-based
# Mus musculus [8] = species: Mus musculus; assay: Inhibition of RhoGEF in mouse NIH/3T3 cells assessed as inhibition of 10% calf serum-induced RhoA-GTP formation by measuring relative RhoA-GTP level at 5 uM in presence of 5 uM Rhosin/G04 incubated for 24 hrs by densitometry (reference value: 1); assay type: cell-based
# [9] = tested on: Transforming protein RhoA (Homo sapiens), P61586 [Q63L]; assay: Inhibition of constitutively active RhoA Q63L mutant (unknown origin) expressed in mouse NIH/3T3 cells assessed as reduction in 10% calf serum-induced phospho-MLC formation at 50 uM incubated for 24 hrs by densitometry; assay type: cell-based
# Mus musculus [10] = species: Mus musculus; assay: Inhibition of RhoGEF in mouse NIH/3T3 cells assessed as inhibition of 10% calf serum-induced RhoA-GTP formation by measuring relative RhoA-GTP level at 10 uM incubated for 24 hrs by densitometry (reference value: 1); assay type: cell-based
# [11] = molecular target: Rho-associated protein kinase 2/Transforming protein RhoA (Homo sapiens) (UniProt O75116+P61586); assay: Inhibition of human ROCK2 expressed in mouse NIH/3T3 cells assessed as reduction in human full length RhoA (1 to 193 residues) interaction with ROCK2 at 50 to 200 uM incubated for 1 hr by Western blot analysis based His-RhoA pull-down assay; assay type: cell-based
# Mus musculus [12] = species: Mus musculus; assay: Inhibition of RhoGEF in mouse NIH/3T3 cells assessed as inhibition of 10% calf serum-induced Cdc42-GTP formation by measuring relative Cdc42-GTP level at 50 uM incubated for 24 hrs by densitometry (reference value: 1); assay type: cell-based
# Mus musculus [13] = species: Mus musculus; assay: Inhibition of RhoGEF in mouse NIH/3T3 cells assessed as inhibition of 10% calf serum-induced RhoA-GTP formation by measuring RhoA-GTP level at 30 uM incubated for 24 hrs by densitometry relative to control (reference value: 2.15); assay type: cell-based
# Mus musculus [14] = species: Mus musculus; assay: Inhibition of RhoGEF in mouse NIH/3T3 cells assessed as inhibition of 10% calf serum-induced Rac1-GTP formation by measuring relative Rac1-GTP level at 50 uM incubated for 24 hrs by densitometry (reference value: 1); assay type: cell-based
# NIH3T3 = assay: Toxicity in mouse NIH/3T3 cells assessed as induction of apoptosis at 10 to 50 uM incubated for 24 hrs by Annexin-V/7-AAD staining based FACS analysis; assay type: cell-based; details: nih3t3, 24 h
# [15] = molecular target: Rho guanine nucleotide exchange factor 12 (Homo sapiens, UniProt Q9NZN5, N983A); assay: Binding affinity to recombinant human LARG (765 to 1138 residues) N983A mutant by microscale thermophoresis analysis
# [16] = tested on: Rho-associated protein kinase 2 (Homo sapiens), O75116 [UNDEFINED MUTATION]; assay: Inhibition of constitutively active ROCK2 mutant (unknown origin) expressed in mouse NIH/3T3 cells assessed as reduction in 10% calf serum-induced focal adhesion complex formation at 530 uM by anti-vinculin antibody staining based assay; assay type: cell-based
# [17] = tested on: Transforming protein RhoA (Homo sapiens), P61586 [Q63L]; assay: Inhibition of constitutively active RhoA Q63L mutant (unknown origin) expressed in mouse NIH/3T3 cells assessed as reduction in 10% calf serum-induced actin stress fiber formation at 50 uM by rhodamine-phalloidin staining based assay; assay type: cell-based
# Mus musculus [18] = species: Mus musculus; assay: Inhibition of RhoGEF-mediated Cdc42 signaling in mouse NIH/3T3 cells assessed as reduction in Bradykinin-stimulated Cdc42-mediated filopodia formation at 10 to 30 uM; assay type: cell-based
# Mus musculus [19] = species: Mus musculus; assay: Inhibition of RhoGEF in mouse NIH/3T3 cells assessed as inhibition of 10% calf serum-induced Rac1-GTP formation by measuring Rac1-GTP level at 30 uM incubated for 24 hrs by densitometry relative to control (reference value: 2.86); assay type: cell-based
# [20] = molecular target: Rho guanine nucleotide exchange factor 12 (Homo sapiens, UniProt Q9NZN5); assay: Inhibition of human LARG (765 to 1138 residues) RhoGEF-catalyzed guanine nucleotide-exchange reaction of human full length RhoA (1 to 193 residues) by measuring inhibition of the GDP dissociation from RhoA by Alexa 647 fluorescence dye based GDP/GTP exchange assay
# Mus musculus [21] = species: Mus musculus; assay: Inhibition of RhoGEF in mouse NIH/3T3 cells assessed as inhibition of 10% calf serum-induced RhoA-GTP formation by measuring reduction in RhoA-GTP level at 5 uM in presence of 5 uM Rhosin/G04 incubated for 24 hrs by densitometry relative to control; assay type: cell-based
# Mus musculus [22] = species: Mus musculus; assay: Inhibition of RhoGEF in mouse NIH/3T3 cells assessed as reduction in 10% calf serum-induced rhoA-mediated actin stress fiber formation at 2.5 uM in presence of 2.5 uM Rhosin/G04 by rhodamine-phalloidin staining based assay; assay type: cell-based
# Homo sapiens [23] = species: Homo sapiens; assay: Inhibition of GST-tagged human TrioN RhoGEF (1284 to 1711 residues) expressed in mouse NIH/3T3 cells assessed as reduction in human full length Rac1 (1 to 192 residues) interaction with TrioN RhoGEF at 50 to 200 uM incubated for 1 hr by Western blot analysis based pull-down assay; assay type: cell-based
# MCF7 [24] = assay: Inhibition of RhoGEF in human MCF7 cells derived mammospheres assessed as inhibition of 10% calf serum-induced RhoA-GTP formation by measuring relative RhoA-GTP level incubated for 24 hrs by densitometry (reference value: 1); assay type: cell-based
# Chain of Transforming protein RhoA (Homo sapiens), P61586 [Q63L] (P61586 whole entry Q63L): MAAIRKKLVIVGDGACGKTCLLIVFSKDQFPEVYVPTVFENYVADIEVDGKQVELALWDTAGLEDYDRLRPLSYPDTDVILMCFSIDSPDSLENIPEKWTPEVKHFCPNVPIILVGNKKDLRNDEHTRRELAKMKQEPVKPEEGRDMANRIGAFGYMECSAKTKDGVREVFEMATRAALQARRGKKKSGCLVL
# Chain of Rho guanine nucleotide exchange factor 12 (Homo sapiens, UniProt Q9NZN5, N983A) (Q9NZN5 2-1544 N983A limits assumed): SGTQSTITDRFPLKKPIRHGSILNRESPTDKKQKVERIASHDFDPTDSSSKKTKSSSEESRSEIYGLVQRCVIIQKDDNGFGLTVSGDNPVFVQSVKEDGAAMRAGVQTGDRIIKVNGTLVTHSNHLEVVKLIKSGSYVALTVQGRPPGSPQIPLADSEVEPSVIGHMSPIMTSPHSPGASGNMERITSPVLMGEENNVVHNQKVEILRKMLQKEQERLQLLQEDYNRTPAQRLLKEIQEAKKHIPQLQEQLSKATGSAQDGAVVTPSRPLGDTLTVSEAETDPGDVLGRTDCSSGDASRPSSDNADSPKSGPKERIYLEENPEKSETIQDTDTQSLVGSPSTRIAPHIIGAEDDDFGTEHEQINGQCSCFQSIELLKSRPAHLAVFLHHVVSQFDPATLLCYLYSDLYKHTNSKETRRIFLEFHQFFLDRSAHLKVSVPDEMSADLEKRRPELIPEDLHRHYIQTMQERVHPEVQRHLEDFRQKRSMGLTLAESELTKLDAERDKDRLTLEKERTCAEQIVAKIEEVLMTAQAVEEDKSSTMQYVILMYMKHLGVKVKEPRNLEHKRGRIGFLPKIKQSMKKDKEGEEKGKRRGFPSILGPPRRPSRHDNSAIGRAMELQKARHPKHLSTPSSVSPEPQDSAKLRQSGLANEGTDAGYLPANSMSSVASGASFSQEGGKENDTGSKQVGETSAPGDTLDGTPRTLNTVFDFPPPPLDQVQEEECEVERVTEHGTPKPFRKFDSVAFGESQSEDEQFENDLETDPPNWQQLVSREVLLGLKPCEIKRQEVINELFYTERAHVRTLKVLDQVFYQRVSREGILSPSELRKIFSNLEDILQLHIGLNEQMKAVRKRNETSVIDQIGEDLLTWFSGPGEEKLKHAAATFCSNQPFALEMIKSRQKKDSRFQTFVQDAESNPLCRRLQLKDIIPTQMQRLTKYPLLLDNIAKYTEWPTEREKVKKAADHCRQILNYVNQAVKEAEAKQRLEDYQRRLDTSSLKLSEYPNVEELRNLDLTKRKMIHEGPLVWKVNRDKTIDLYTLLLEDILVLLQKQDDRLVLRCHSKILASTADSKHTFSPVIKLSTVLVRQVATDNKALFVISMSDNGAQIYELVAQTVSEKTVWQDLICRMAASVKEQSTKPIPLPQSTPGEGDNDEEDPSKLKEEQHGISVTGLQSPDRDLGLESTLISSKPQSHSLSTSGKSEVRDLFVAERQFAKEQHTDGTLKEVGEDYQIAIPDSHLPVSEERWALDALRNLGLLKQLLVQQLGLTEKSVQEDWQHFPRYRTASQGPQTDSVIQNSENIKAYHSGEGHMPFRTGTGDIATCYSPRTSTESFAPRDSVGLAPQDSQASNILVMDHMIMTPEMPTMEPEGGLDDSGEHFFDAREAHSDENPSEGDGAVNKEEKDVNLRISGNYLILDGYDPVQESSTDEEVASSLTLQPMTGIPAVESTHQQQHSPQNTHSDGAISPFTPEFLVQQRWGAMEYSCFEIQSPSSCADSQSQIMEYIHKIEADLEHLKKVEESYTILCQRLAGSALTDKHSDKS
# Chain of Rho-associated protein kinase 2/Transforming protein RhoA (Homo sapiens) (O75116 whole entry, looked up, the tested form may be a part): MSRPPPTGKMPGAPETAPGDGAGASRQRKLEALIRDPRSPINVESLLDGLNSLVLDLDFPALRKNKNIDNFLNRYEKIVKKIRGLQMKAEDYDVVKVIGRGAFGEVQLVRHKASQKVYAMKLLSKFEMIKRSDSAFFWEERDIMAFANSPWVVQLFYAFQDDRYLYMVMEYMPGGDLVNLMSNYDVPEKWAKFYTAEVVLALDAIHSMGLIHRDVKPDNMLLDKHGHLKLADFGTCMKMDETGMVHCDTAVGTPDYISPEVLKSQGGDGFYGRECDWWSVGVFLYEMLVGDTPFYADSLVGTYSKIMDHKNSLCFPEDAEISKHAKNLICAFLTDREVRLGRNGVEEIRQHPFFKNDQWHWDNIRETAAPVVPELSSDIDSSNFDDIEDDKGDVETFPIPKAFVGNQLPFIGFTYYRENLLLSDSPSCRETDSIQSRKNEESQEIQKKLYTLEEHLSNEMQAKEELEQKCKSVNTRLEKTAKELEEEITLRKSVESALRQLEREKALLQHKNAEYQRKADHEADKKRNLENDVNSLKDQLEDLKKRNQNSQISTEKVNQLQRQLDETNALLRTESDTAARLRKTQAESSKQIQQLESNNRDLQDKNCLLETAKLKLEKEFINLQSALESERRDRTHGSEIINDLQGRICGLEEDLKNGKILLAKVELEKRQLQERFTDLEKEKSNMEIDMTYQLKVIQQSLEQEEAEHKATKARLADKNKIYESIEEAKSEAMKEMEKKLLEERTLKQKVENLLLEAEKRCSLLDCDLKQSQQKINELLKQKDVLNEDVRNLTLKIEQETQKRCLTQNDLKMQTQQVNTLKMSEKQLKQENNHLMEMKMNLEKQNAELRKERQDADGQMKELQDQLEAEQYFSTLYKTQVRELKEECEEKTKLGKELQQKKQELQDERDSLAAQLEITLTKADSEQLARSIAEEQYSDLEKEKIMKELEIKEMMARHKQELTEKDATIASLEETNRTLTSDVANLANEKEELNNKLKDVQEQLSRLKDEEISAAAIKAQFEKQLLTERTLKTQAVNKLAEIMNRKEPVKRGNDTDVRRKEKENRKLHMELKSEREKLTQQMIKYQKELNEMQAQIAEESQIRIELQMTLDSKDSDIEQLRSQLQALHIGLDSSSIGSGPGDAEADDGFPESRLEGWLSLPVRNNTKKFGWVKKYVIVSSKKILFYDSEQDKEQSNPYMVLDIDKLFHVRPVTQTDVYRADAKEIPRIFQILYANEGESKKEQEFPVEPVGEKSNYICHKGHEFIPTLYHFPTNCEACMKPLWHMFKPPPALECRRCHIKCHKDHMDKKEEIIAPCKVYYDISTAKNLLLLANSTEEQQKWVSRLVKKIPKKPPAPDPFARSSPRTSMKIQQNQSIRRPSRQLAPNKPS
# Chain of Rho-associated protein kinase 2/Transforming protein RhoA (Homo sapiens) (P61586 whole entry, looked up, the tested form may be a part): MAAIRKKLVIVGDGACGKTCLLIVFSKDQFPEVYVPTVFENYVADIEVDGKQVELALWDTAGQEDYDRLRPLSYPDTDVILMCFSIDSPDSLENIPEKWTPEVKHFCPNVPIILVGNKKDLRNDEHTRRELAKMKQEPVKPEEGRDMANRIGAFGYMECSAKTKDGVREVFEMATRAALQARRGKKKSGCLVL
# Chain of Rho-associated protein kinase 2 (Homo sapiens), O75116 [UNDEFINED MUTATION] (O75116 whole entry, looked up, stated change not applied): as the sequence (O75116 whole entry, looked up, the tested form may be a part) above
# Chain of Rho guanine nucleotide exchange factor 12 (Homo sapiens, UniProt Q9NZN5) (Q9NZN5 whole entry, the tested form may be a part): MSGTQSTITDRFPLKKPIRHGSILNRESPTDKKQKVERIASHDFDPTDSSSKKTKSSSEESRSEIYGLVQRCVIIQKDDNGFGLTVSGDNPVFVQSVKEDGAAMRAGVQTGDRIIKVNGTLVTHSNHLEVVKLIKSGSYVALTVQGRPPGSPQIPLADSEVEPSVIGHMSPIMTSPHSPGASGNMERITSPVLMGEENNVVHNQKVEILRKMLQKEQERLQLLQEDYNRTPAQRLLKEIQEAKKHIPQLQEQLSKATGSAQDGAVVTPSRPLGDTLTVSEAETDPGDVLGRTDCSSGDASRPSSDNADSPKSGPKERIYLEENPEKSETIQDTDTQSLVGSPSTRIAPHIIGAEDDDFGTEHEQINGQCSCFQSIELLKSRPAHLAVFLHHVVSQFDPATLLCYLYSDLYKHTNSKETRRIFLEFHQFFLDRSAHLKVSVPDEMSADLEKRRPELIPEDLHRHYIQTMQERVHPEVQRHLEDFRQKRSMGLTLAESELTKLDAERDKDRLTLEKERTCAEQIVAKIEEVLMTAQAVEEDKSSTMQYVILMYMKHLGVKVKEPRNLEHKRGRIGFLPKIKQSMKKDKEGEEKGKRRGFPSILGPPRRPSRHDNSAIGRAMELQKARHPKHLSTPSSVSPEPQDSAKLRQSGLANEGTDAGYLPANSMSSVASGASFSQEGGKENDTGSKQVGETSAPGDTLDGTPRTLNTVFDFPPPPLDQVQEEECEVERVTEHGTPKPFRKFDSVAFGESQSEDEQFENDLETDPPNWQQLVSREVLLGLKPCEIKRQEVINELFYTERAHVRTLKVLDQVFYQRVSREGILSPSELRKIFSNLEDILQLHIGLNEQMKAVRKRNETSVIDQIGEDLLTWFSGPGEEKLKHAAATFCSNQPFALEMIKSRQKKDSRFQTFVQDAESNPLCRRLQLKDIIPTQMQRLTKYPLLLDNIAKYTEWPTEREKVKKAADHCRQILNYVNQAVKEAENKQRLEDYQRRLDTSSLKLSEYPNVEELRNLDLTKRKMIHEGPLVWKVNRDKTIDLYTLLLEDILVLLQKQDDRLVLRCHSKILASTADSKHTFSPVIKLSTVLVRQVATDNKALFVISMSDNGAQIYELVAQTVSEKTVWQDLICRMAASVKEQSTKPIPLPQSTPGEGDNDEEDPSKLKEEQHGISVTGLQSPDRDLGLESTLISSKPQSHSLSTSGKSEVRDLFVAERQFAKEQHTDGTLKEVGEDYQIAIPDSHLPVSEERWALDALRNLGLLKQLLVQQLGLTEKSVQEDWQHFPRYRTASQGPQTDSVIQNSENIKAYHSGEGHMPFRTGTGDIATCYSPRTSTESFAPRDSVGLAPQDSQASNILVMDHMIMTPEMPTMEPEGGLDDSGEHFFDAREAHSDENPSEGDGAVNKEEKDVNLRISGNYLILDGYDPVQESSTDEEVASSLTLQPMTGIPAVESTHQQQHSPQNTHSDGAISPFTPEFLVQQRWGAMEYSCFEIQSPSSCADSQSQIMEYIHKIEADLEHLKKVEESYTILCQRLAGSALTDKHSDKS
smiles,measurement,setting,value
Cc1cccc(COc2cccc(/C=C3\C(=O)NN(c4ccccc4)C3=O)c2)c1,inhibition,MCF7 [1],Active
same,fold change (FC),MCF7 [2],0.11
same,Kd,[3],774 µM
same,inhibition,Homo sapiens [4],inactive
same,inhibition,Mus musculus [5],Active
same,inhibition,MCF7 [6],Active
same,fold change (FC),[7],0.28
same,fold change (FC),Mus musculus [8],0.46
same,inhibition,[9],inactive
same,fold change (FC),Mus musculus [10],0.8
same,inhibition,[11],inactive
same,fold change (FC),Mus musculus [12],1.25
same,fold change (FC),Mus musculus [13],0.87
same,fold change (FC),Mus musculus [14],0.93
same,Activity,NIH3T3,Non-Toxic
same,Kd,[15],> 500 µM
same,inhibition,[16],inactive
same,inhibition,[17],inactive
same,inhibition,Mus musculus [18],inactive
same,fold change (FC),Mus musculus [19],2.36
same,inhibition,[20],Dose-dependent effect
same,inhibition,Mus musculus [21],80%
same,inhibition,Mus musculus [22],Active
same,inhibition,Homo sapiens [23],inactive
same,inhibition,MCF7 [24],Dose-dependent effect
